Experimental data from patent US20120053130A1, “COMPOSITION FOR ENHANCING ABSORPTION OF A DRUG AND METHOD” (Bristol-Myers Squibb Company, priority 2010, published 2012).

Key:
Calu-3 cells [1] = assay: Alamar Blue acute cytotoxicity assay; type: cell-based, human
Source text: FIG. 2 depicts an Alamar Blue Assay—Black bar indicates the % of the cell survival after 2 hrs treatment of LPC at 0-0.25%; gray bar indicates the combination of LPC with 0.5% of C971P.
This assay is based on the ability of live cells to enzymatically reduce Alamar blue dye which indicates the relative percentage of cells that survive the exposure to the various treatments. Calu-3 cells exposed to buffer for 2 hr were used as the positive control with 100% cell survival.

Calu-3 cells [2] = assay: TEER measurement (cell integrity and reversibility); type: cell-based, human; settings: for TEER after 2 hr (% initial): Phosphatidylcholine (Lecithin) Treatment
Source text: The asterisk (delete scatters with) (*) represent (delete marker present) those samples where TEER recovered to the original level within 12 hrs after washout of the treatment.
Transepithelial electrical resistance (TEER) measures the integrity of the epithelial barrier. […] Return of the TEER values to initial levels indicates recovery to baseline barrier properties. TEER measurements were done in confluent highly resistant Calu-3 cells cultured in Transwell filters with handheld STX-2 electrodes connected to EVOM Voltohmmeter. […] After the removal of apical treatment, TEER recovered to the original values.

Calu-3 cells [3] = assay: DDAVP permeation across Calu-3 cells on Transwell filters; type: in vitro ADME, human; settings: for DDAVP Permeability: Phosphatidylcholine (Lecithin) Treatment
Source text: (§1) Papp values are labeled on top of the bars.
(§2) Inclusion of LPC further boosted the transport of DDAVP.

[4] = Intra-nasal DADLE absorption in rabbits; type: in vivo, rabbit; settings: DADLE 1 mg/kg intra-nasal via syringe microsprayer
Source text: Intra-nasal delivery of the model pentapepdide DADLE in water, C971P, LPC or C971P/LPC formulation was studied in rabbits. […] The C971P/LPC formulation enhanced DADLE absorption by >50% compared to LPC alone.

[5] = DDAVP permeation across Calu-3 cells on Transwell filters; type: in vitro ADME, human; settings: human
Source text: as §1, §2

## CCCCCCCCCC(=O)[O-].[Na+] [sodium caprate]
Calu-3 cells [1]; Alamar Blue cytotoxicity assay in Calu-3 cells
  effect of Carbopol 971P on acute cytotoxicity of the enhancer: failed to reduce the acute cytotoxicity

## Phosphatidylcholine [Phosphatidylcholine (Lecithin)]
Calu-3 cells [2]; 1 mM
  TEER after 2 hr (% initial): No change
Calu-3 cells [2]; 2 mM
  TEER after 2 hr (% initial): No change
Calu-3 cells [2]; 5 mM
  TEER after 2 hr (% initial): No change
Calu-3 cells [3]; Calu-3 cells, TEER 2 hr after exposure
  DDAVP permeability enhancement and TEER drop, result in words: failed to show any measurable enhancement or TEER drop
Calu-3 cells [3]; 1 mM
  DDAVP Permeability: 0.045 ± 0.003 ×10⁻⁶ cm/s
Calu-3 cells [3]; 2 mM
  DDAVP Permeability: 0.044 ± 0.003 ×10⁻⁶ cm/s
Calu-3 cells [3]; 5 mM
  DDAVP Permeability: 0.044 ± 0.004 ×10⁻⁶ cm/s

## L-α-lysophosphatidylcholine [LPC]
Calu-3 cells [2]; 2 hours of treatment
  change in TEER on treatment: dramatic drop in TEER
Calu-3 cells [1]; 0.05% LPC, 2 hr, without or with 0.5% C971P
  cell survival: About 82%
Calu-3 cells [1]; 0.1% LPC, 2 hr, without or with 0.5% C971P
  cell survival: 41%
Calu-3 cells [1]; LPC 0-0.25%, 2 hr, without or with 0.5% C971P
  cell survival, result in words: dose-dependent reduction in survival
[4]
  DADLE exposure relative to water control: 2.4 times

## NC(=O)CC[C@@H]1NC(=O)[C@H](Cc2ccccc2)NC(=O)[C@H](Cc2ccc(O)cc2)NC(=O)CCSSC[C@@H](C(=O)N2CCC[C@H]2C(=O)N[C@H](CCCN=C(N)N)C(=O)NCC(N)=O)NC(=O)[C@H](CC(N)=O)NC1=O [DDAVP, 1 deamino-8-D-arginin-vasopressin]
[5]
  Papp A→B: 0.04 ± 0.003 ×10⁻⁶ cm/s
